Assay results reported in US11986471B2, “Compounds and methods of use” (Tango Therapeutics, Inc., priority 2018, dated 2024).

What was measured:
[1] = target: T1, PRMT5 (Homo sapiens, UniProt O14744); test: PRMT5 IC50 assay in the presence of MTA as cofactor; type: biochemical; conditions: for IC50: PRMT5, MTA as cofactor
T1 construct: purchased Viva (custom protein)
How it was run: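 For the SAM-containing format, dividing IC50 by 1.5 yields Ki; for the MTA-containing format the divisor is 13.5. A third format without cofactor gives IC50 alone.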

[2] = target: T1, PRMT5; test: PRMT5 IC50 assay with no cofactor; type: biochemical
How it was run: (§1)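 Values reflect IC50 (μM) on human PRMT5 under three cofactor states. Selectivity is derived as the quotient of SAM-state Ki over MTA-state Ki, with each Ki obtained from its IC50.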

[3] = system: HAP1 MTAP-intact; test: SDMA in-cell western assay, HAP1 MTAP-intact cell line; type: cell-based; conditions: Homo sapiens
How it was run: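 Potency reflects cellular SDMA reduction, detected by in-cell western, in HAP1 cells with or without MTAP (endogenous expression versus null).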

[4] = system: HAP1 MTAP-deleted; test: SDMA in-cell western assay, HAP1 MTAP-deleted cell line; type: cell-based; conditions: for IC50: Homo sapiens, HAP1 MTAP-deleted cell line; for MTAP Intact/Deleted Ratio: IC50 ratio HAP1 MTAP-intact / HAP1 MTAP-deleted
How it was run: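 These are IC50 values from an in-cell western measuring SDMA. The HAP1 cells used carry no MTAP, in contrast to the isogenic partner line with endogenous MTAP expression.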

[5] = target: T1, PRMT5; test: PRMT5 IC50 assay in the presence of SAM as cofactor; type: biochemical
How it was run: as §1

[6] = ratio between Ki in the presence of SAM and Ki in the presence of MTA
[7] = ratio between the Ki in the presence of SAM and the Ki in the presence of MTA

T1 sequence (O14744 whole entry): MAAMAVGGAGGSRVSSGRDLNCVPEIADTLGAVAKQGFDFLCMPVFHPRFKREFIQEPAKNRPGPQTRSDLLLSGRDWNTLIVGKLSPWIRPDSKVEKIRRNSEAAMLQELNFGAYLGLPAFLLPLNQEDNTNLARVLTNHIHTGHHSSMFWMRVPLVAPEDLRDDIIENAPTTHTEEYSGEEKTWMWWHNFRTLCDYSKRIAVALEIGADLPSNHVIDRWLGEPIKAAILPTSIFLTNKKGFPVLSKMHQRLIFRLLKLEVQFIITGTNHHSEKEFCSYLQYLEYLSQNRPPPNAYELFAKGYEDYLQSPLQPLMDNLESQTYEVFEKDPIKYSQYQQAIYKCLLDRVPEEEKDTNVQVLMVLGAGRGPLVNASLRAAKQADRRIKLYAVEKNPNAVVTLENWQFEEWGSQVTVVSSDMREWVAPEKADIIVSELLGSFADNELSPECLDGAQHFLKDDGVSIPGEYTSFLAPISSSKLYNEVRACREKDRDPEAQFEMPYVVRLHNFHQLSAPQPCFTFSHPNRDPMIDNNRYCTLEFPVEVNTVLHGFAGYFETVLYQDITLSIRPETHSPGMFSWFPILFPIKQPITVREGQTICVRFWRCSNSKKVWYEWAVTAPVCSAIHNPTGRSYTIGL
T1 sequence (Q9BQA1 whole entry partner): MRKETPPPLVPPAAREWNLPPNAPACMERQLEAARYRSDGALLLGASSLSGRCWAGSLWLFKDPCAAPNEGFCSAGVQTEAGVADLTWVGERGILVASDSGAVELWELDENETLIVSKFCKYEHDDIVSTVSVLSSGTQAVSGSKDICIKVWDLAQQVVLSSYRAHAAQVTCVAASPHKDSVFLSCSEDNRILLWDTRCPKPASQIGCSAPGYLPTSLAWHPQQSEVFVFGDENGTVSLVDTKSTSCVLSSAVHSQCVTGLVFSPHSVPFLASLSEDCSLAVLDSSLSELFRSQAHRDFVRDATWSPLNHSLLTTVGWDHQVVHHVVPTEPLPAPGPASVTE

Q: What does the source list for `O=C(NC[C@H](O)CN1CCc2c(ccc(OCc3cnco3)c2Br)C1)c1ccnc(NC2CCC2)c1` [Compound 255, N-[(2S)-3-[5-bromo-6-(oxazol-5-ylmethoxy)-3,4-dihydro-1H-isoquinolin-2-yl]-2-hydroxy-propyl]-2-(cyclobutylamino)pyridine-4-carboxamide]?
A: IC50 [1]: 50 to 500 nM; SAM/MTA Ratio [1, 6]: A (a Ki ratio greater than or equal to 10 fold between the Ki in the presence of SAM and the Ki in the presence of MTA); IC50 ([2]; read-out: No Co-factor IC50): ≥ 5000 nM; IC50 [3]: ≥ 10000 nM; IC50 [4]: ≥ 10000 nM; MTAP Intact/Deleted Ratio [4]: C* (an IC50 ratio of less than 3 fold between the IC50 in the HAP1 MTAP-intact cell line and the HAP1 MTAP-deleted cell line); IC50 [5]: 500 to 5000 nM

Q: `Cc1ncoc1COc1ccc2c(c1)CCN(C[C@@H](O)CNC(=O)c1cc(NC3CCN(C(=O)C(C)(C)C)CC3)ncn1)C2` [Compound 616, 6-{[1-(2,2-dimethylpropanoyl)piperidin-4-yl]amino}-N-[(2S)-2-hydroxy-3-{6-[(4-methyl-1,3-oxazol-5-yl)methoxy]-1,2,3,4-tetrahydroisoquinolin-2-yl}propyl]pyrimidine-4-carboxamide] was tested. Which IC50 [1] did it give?
A: < 50 nM

Q: And the “SAM/MTA Ratio” value [1, 7]?
A: A (a Ki ratio greater than or equal to 10 fold between the Ki in the presence of SAM and the Ki in the presence of MTA)

Q: And the IC50 [2]?
A: 500 to 5000 nM

Q: And the IC50 [3]?
A: 1000 to 10000 nM

Q: And the IC50 [4]?
A: < 1000 nM

Q: What about the “MTAP Intact/Deleted Ratio” value [4] of the same compound?
A: C* (an IC50 ratio of less than 3 fold between the IC50 in the HAP1 MTAP-intact cell line and the HAP1 MTAP-deleted cell line)

Q: What about the IC50 [5] of the same compound?
A: 50 to 500 nM

Q: What does the source list for `CC(C)C(=O)N1CC(Nc2cc(C(=O)NC[C@H](O)CN3CCc4cc(OCc5cnco5)ccc4C3)ccn2)C1` [Compound 479, N-[(2S)-2-hydroxy-3-[6-(oxazol-5-ylmethoxy)-3,4-dihydro-1H-isoquinolin-2-yl]propyl]-2-[[1-(2-methylpropanoyl)azetidin-3-yl]amino]pyridine-4-carboxamide]?
A: IC50 [1]: 50 to 500 nM; SAM/MTA Ratio [1, 7]: A (a Ki ratio greater than or equal to 10 fold between the Ki in the presence of SAM and the Ki in the presence of MTA); IC50 [2]: ≥ 5000 nM; IC50 [3]: 1000 to 10000 nM; IC50 [4]: 1000 to 10000 nM; MTAP Intact/Deleted Ratio [4]: C* (an IC50 ratio of less than 3 fold between the IC50 in the HAP1 MTAP-intact cell line and the HAP1 MTAP-deleted cell line); IC50 [5]: 500 to 5000 nM

Q: For `CN(C)CCOc1cc(C(=O)NC[C@H](O)CN2CCc3c(ccc(OCc4cnco4)c3Cl)C2)cc(NC2CCC2)n1` [Compound 329, (S)—N-(3-(5-chloro-6-(oxazol-5-ylmethoxy)-3N-dihydroisoquinolin-2(1H)-yl)-2-hydroxypropyl)-2-(cyclobutylamino)-6-(2-(dimethylamino)ethoxy)isonicotinamide], which IC50 [1] is on record?
A: < 50 nM

Q: What about the “SAM/MTA Ratio” value [1, 6] of the same compound?
A: A (a Ki ratio greater than or equal to 10 fold between the Ki in the presence of SAM and the Ki in the presence of MTA)

Q: What about the IC50 ([2]; read-out: No Co-factor IC50) of the same compound?
A: 500 to 5000 nM

Q: And the IC50 [3]?
A: ≥ 10000 nM

Q: What about the IC50 [4] of the same compound?
A: 1000 to 10000 nM

Q: What about the “MTAP Intact/Deleted Ratio” value [4] of the same compound?
A: B* (an IC50 ratio greater than or equal to 3 fold but lower than 10 fold between the IC50 in the HAP1 MTAP-intact cell line and the HAP1 MTAP-deleted cell line)

Q: What about the IC50 [5] of the same compound?
A: 50 to 500 nM

Q: How did the IC50 [1] turn out when `Cc1ncoc1COc1ccc2c(c1C)CCN(C[C@@H](O)CNC(=O)c1cc(CC(C)C)nc(NC3CCC3)c1)C2` [Compound 504, 2-(cyclobutylamino)-N-[(2S)-2-hydroxy-3-{5-methyl-6-[(4-methyl-1,3-oxazol-5-yl)methoxy]-1,2,3,4-trihydroisoquinolin-2-yl}propyl]-6-(2-methylpropyl)pyridine-4-carboxamide] was run?
A: 50 to 500 nM

Q: What about the “SAM/MTA Ratio” value [1, 7] of the same compound?
A: A (a Ki ratio greater than or equal to 10 fold between the Ki in the presence of SAM and the Ki in the presence of MTA)

Q: And the IC50 [2]?
A: ≥ 5000 nM

Q: And the IC50 [3]?
A: ≥ 10000 nM

Q: And the IC50 [4]?
A: ≥ 10000 nM

Q: What about the “MTAP Intact/Deleted Ratio” value [4] of the same compound?
A: C* (an IC50 ratio of less than 3 fold between the IC50 in the HAP1 MTAP-intact cell line and the HAP1 MTAP-deleted cell line)

Q: And the IC50 [5]?
A: 50 to 500 nM

Q: With `CN1CCN(c2cc(C(=O)NC[C@H](O)CN3CCc4cc(OCc5cnco5)ccc4C3)cc(NC3CCC3)n2)CC1` [Compound 448] as the compound, how does the IC50 [1] read?
A: 50 to 500 nM

Q: What about the “SAM/MTA Ratio” value [1, 7] of the same compound?
A: A (a Ki ratio greater than or equal to 10 fold between the Ki in the presence of SAM and the Ki in the presence of MTA)

Q: What about the IC50 [2] of the same compound?
A: 500 to 5000 nM

Q: And the IC50 [3]?
A: < 1000 nM

Q: And the IC50 [4]?
A: < 1000 nM

Q: What about the “MTAP Intact/Deleted Ratio” value [4] of the same compound?
A: C* (an IC50 ratio of less than 3 fold between the IC50 in the HAP1 MTAP-intact cell line and the HAP1 MTAP-deleted cell line)

Q: What about the IC50 [5] of the same compound?
A: 50 to 500 nM

Q: Which IC50 [1] does the source give for `CC(C)C(=O)N1CCN(c2cc(C(=O)NC[C@H](O)CN3CCc4c(ccc(OCc5cnco5)c4Cl)C3)cc(NC3CCC3)n2)CC1` [Compound 466] here?
A: 50 to 500 nM

Q: And the “SAM/MTA Ratio” value [1, 7]?
A: A (a Ki ratio greater than or equal to 10 fold between the Ki in the presence of SAM and the Ki in the presence of MTA)

Q: And the IC50 [2]?
A: 500 to 5000 nM

Q: What about the IC50 [3] of the same compound?
A: < 1000 nM

Q: And the IC50 [4]?
A: < 1000 nM

Q: And the “MTAP Intact/Deleted Ratio” value [4]?
A: C* (an IC50 ratio of less than 3 fold between the IC50 in the HAP1 MTAP-intact cell line and the HAP1 MTAP-deleted cell line)

Q: And the IC50 [5]?
A: 50 to 500 nM

Q: With `CC(=O)N1CC(Nc2cc(C(=O)NC[C@H](O)CN3CCc4c(ccc(OCc5cnco5)c4Cl)C3)nc(C(C)(C)C)n2)C1` [Compound 360, (S)-6-((1-acetylazetidin-3-yl)amino)-2-(tert-butyl)-N-(3-(5-chloro-6-(oxazol-5-ylmethoxy)-3,4-dihydroisoquinolin-2(1H)-yl)-2-hydroxypropyl)pyrimidine-4-carboxamide] as the compound, how does the IC50 [1] read?
A: 50 to 500 nM

Q: What about the “SAM/MTA Ratio” value [1, 6] of the same compound?
A: A (a Ki ratio greater than or equal to 10 fold between the Ki in the presence of SAM and the Ki in the presence of MTA)

Q: What about the IC50 ([2]; read-out: No Co-factor IC50) of the same compound?
A: 500 to 5000 nM

Q: What about the IC50 [3] of the same compound?
A: ≥ 10000 nM

Q: And the IC50 [4]?
A: < 1000 nM

Q: What about the “MTAP Intact/Deleted Ratio” value [4] of the same compound?
A: A* (an IC50 ratio greater than or equal to 10 fold between the IC50 in the HAP1 MTAP-intact cell line and the HAP1 MTAP-deleted cell line)

Q: And the IC50 [5]?
A: 50 to 500 nM

Q: Which IC50 [1] does the source give for `CC(=O)N1CC(Nc2cc(C(=O)NC[C@H](O)CN3CCc4cc(OCc5cnco5)ccc4C3)nc(N3CCCCC3)n2)C1` [Compound 365, (S)-6-((1-acetylazetidin-3-yl)amino)-N-(2-hydroxy-3-(6-(oxazol-5-ylmethoxy)-3A-dihydroisoquinolin-2(1H)-yl)propyl)-2-(piperidin-1-yl)pyrimidine-4-carboxamide] here?
A: < 50 nM

Q: And the “SAM/MTA Ratio” value [1, 6]?
A: A (a Ki ratio greater than or equal to 10 fold between the Ki in the presence of SAM and the Ki in the presence of MTA)

Q: And the IC50 ([2]; read-out: No Co-factor IC50)?
A: 500 to 5000 nM

Q: What about the IC50 [3] of the same compound?
A: 1000 to 10000 nM

Q: What about the IC50 [4] of the same compound?
A: < 1000 nM

Q: What about the “MTAP Intact/Deleted Ratio” value [4] of the same compound?
A: B* (an IC50 ratio greater than or equal to 3 fold but lower than 10 fold between the IC50 in the HAP1 MTAP-intact cell line and the HAP1 MTAP-deleted cell line)

Q: And the IC50 [5]?
A: 50 to 500 nM

Q: Which results are given for `CO[C@H]1CC[C@H](Nc2cc(C(=O)NC[C@H](O)CN3CCc4c(ccc(OCc5cnco5)c4C)C3)ncn2)CC1` [Compound 572, N-[(2S)-2-hydroxy-3-{5-methyl-6-[(1,3-oxazol-5-yl)methoxy]-1,2,3,4-tetrahydroisoquinolin-2-yl}propyl]-6-{[(1r,4r)-4-methoxycyclohexyl]amino}pyrimidine-4-carboxamide]?
A: IC50 [1]: 50 to 500 nM; SAM/MTA Ratio [1, 7]: A (a Ki ratio greater than or equal to 10 fold between the Ki in the presence of SAM and the Ki in the presence of MTA); IC50 [2]: ≥ 5000 nM; IC50 [3]: ≥ 10000 nM; IC50 [4]: ≥ 10000 nM; MTAP Intact/Deleted Ratio [4]: C* (an IC50 ratio of less than 3 fold between the IC50 in the HAP1 MTAP-intact cell line and the HAP1 MTAP-deleted cell line); IC50 [5]: 500 to 5000 nM

Q: With `Cc1ncoc1COc1ccc2c(c1C)CCN(C[C@@H](O)CNC(=O)c1cc(NC3COC3)nc(N3CCN(C(=O)C4CC4)CC3)n1)C2` [Compound 414, 2-(4-cyclopropanecarbonylpiperazin-1-yl)-N-[(2S)-2-hydroxy-3-{5-methyl-6-[(4-methyl-1,3-oxazol-5-yl)methoxy]-1,2,3,4-tetrahydroisoquinolin-2-yl}propyl]-6-[(oxetan-3-yl)amino]pyrimidine-4-carboxamide] as the compound, how does the IC50 [1] read?
A: 50 to 500 nM

Q: And the “SAM/MTA Ratio” value [1, 6]?
A: A (a Ki ratio greater than or equal to 10 fold between the Ki in the presence of SAM and the Ki in the presence of MTA)

Q: And the IC50 ([2]; read-out: No Co-factor IC50)?
A: ≥ 5000 nM

Q: And the IC50 [3]?
A: ≥ 10000 nM

Q: What about the IC50 [4] of the same compound?
A: < 1000 nM

Q: And the “MTAP Intact/Deleted Ratio” value [4]?
A: A* (an IC50 ratio greater than or equal to 10 fold between the IC50 in the HAP1 MTAP-intact cell line and the HAP1 MTAP-deleted cell line)

Q: What about the IC50 [5] of the same compound?
A: 50 to 500 nM

Q: How did the IC50 [1] turn out when `COc1cc(C(=O)NC[C@H](O)CN2CCc3cc(OCc4cnco4)ccc3C2)cc(NC2CCC2)n1` [Compound 310, (S)-2-(cyclobutylamino)-N-(2-hydroxy-3-(6-(oxazol-5-ylmethoxy)-3,4-dihydroisoquinolin-2(1H)-yl)propyl)-6-methoxyisonicotinamide] was run?
A: 50 to 500 nM

Q: What about the “SAM/MTA Ratio” value [1, 6] of the same compound?
A: A (a Ki ratio greater than or equal to 10 fold between the Ki in the presence of SAM and the Ki in the presence of MTA)

Q: What about the IC50 ([2]; read-out: No Co-factor IC50) of the same compound?
A: ≥ 5000 nM

Q: What about the IC50 [3] of the same compound?
A: 1000 to 10000 nM

Q: What about the IC50 [4] of the same compound?
A: 1000 to 10000 nM

Q: What about the “MTAP Intact/Deleted Ratio” value [4] of the same compound?
A: B* (an IC50 ratio greater than or equal to 3 fold but lower than 10 fold between the IC50 in the HAP1 MTAP-intact cell line and the HAP1 MTAP-deleted cell line)

Q: What about the IC50 [5] of the same compound?
A: 500 to 5000 nM
